Data: patent publication US11072634B2, “Inhibitors of transglutaminases” (Zedira GmbH, priority 2016, dated 2021)

Tests used:
CaCo2 and Huh7 cells = experiment: Cytotoxicity of transglutaminase inhibitors (BrdU and EZ4U); format: cell-based, human; conditions: highest concentration measured 1 mM
Method: The following cell lines are used for determination of cytotoxicity: • CaCo2 (human colon carcinoma cell line) • Huh7 (human liver carcinoma cell line).
Cells are cultivated in DMEM/10% FCS at 37° C. and 5% CO2 in a 96 well plate with an initial seeding density of 2×10^4 cells/well.
Transglutaminase inhibitors are added to the cells with final concentrations from 0.1 μM to 1 mM one hour after seeding. The different inhibitor dilutions are prepared in DMSO, resulting in a final concentration of 1% (v/v) DMSO in every well (2 μl inhibitor in 200 μl cell culture medium). Cycloheximide (2.5 μg/ml) and Camptothecin (0.2 μg/ml) are used as control compounds. All measurements are performed in triplicates.
Cytotoxicity of transglutaminase inhibitors is evaluated with two different assays:
Determination of proliferation using Cell Proliferation ELISA, BrdU (Roche, Cat. No. 11647229001).
After 24 h of incubation with inhibitors or controls, BrdU is added to the cells. After further incubation for 18 h, the cells are fixed and cellular DNA becomes denatured. […] Substrate solution is added and absorbance at 450 nm is recorded. […]
After 48 h of incubation with inhibitors or controls, the tetrazolium substrate is added to the cells. Substrate turnover by the cells is measured over two hours at 450 nm (using 630 nm was reference wavelength).

TG2 = molecular target: T1, TG2 (Rattus norvegicus, UniProt Q9WVJ6); experiment: TG2 activity in NRK52E cell homogenates (Tissue Transglutaminase Pico-Assay Kit); format: cell-based; conditions: 6/24/36 mM glucose, 10-100 μM inhibitor
T1 construct: endogenous in cells; host or cells: NRK52E
T1 sequence (Q9WVJ6 1-686): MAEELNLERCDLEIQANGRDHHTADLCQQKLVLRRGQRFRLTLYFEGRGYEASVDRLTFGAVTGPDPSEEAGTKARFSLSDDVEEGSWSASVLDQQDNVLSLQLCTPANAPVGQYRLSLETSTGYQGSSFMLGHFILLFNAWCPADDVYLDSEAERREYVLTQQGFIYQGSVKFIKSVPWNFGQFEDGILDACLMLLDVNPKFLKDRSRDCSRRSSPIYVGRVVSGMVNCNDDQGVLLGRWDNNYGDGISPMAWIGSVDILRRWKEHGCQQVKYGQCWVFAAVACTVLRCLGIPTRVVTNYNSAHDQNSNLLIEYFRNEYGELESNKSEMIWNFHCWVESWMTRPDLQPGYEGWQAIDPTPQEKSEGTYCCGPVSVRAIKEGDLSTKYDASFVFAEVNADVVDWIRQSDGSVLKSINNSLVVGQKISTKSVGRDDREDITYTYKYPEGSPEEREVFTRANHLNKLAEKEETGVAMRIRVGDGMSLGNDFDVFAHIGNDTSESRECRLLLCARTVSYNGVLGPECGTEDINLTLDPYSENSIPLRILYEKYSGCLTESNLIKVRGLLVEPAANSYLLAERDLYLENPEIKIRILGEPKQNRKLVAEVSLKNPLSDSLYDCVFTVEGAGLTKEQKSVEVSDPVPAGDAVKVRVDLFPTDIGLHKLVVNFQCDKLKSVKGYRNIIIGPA
Method: Fibrosis is a hallmark in diabetic nephropathy and chronic kidney diseases. Proximal tubular epithelial cells show increased TG2 activity and increased extracellular matrix proteins (ECM) accumulation under hyperglycemic conditions. ECM accumulation is a hall mark of fibrosis. […] TG2-activity and ECM-accumulation was measured. Rattus norvegicus kidney derived cell line NRK52E was grown at 37° C. in a humidified atmosphere at 5% (v/v) CO2 in DMEM (Dulbecco's modified Eagle's medium) containing 100 μg/mL streptomycin, 100 units/ml penicillin, […], and 10% (v/v) fetal calf serum. For simulation of normal physiological conditions 6 mM D-glucose were added to the medium, while addition of 24 mM and 36 mM D-glucose simulated hyperglycemic conditions. Reversible TG2 inhibitor E06 in the concentrations indicated in FIG. 1A was added at the time of plating to the medium. Reversible TG2 inhibitor E22 in the concentrations indicated in FIG. 2A was added at the time of plating to the medium.
TG2-activity was determined in cell homogenates. […]
TG2-activity was measured using the TG2-selective Tissue Transglutaminase Pico-Assay Kit (#M003, Zedira, Darmstadt, Germany) according to the manufacturer's instructions. […]

BEAS-2B cells = experiment: Extracellular matrix protein deposition of LPS-stimulated BEAS-2B cells; format: cell-based, human; conditions: 0-200 μM
Method: B) Extracellular matrix protein deposition of homogenates from BEAS-2B-cell grown in the presence of 0-200 μM E22 and stimulated with LPS measured by the DC-protein-assay (BioRad, #5000111).
Extracellular matrix deposition is a hallmark in pulmonary fibrosis. The BEAS-2B cell line is derived from normal human bronchial epithelium.
BEAS-2B cells were grown at 37° C. and 5% CO2 in 25 mM HEPES-buffered M199-medium (Merck, Darmstadt) containing 10% FBS, […], 2 mM glutamine, 100 U/ml penicillin (supplemented with […] apotransferrin, 20 ng/ml human epidermal growth factor (EGF), […] insulin, and 0.361 mg/ml hydrocortisone). For the induction of airway fibrosis by epithelial-to-mesenchymal transition (EMT), cells were seeded at 80% confluence on six-well plates. After one day cultivation 4 μg/mL LPS as well as 0 μM, 100 μM or 200 μM E22 were added and then incubated for further 72 h.

[1] = system: Human hepatic stellate cell line LX-2; experiment: Extracellular matrix protein deposition of LX-2 cells; format: cell-based; conditions: LX-2, 100 μM and 200 μM, 12 days
Method: B) Extracellular matrix protein deposition of homogenates from LX-2-cells grown in standard plastic 6-well plates in the presence of 0-200 μM E22 measured by the DC-protein-assay (BioRad, #5000111).
Human hepatic stellate cell line LX-2 was cultured on standard plastic 6 well plates in Dulbecco's Modified Eagle's Medium containing 100 μg/mL streptomycin, 100 units/ml penicillin, 2 mM glutamine, and 10% (v/v) fetal calf serum. E22 was added to a concentration of 0 μM, 100 μM and 200 μM. Cells were grown at 37° C. and 5% CO2 humidified atmosphere. Medium was exchanged every two days.

| TG2 activity determined in the cell homogenates (TG2) | Compound | no influence on cell proliferation or metabolic activity up to (CaCo2 and Huh7 cells) | deposition of ECM-proteins (BEAS-2B cells) | extracellular matrix deposition, of control [1] |
| --- | --- | --- | --- | --- |
| – | COC(=O)[C@H](CC(C)C)NC(=O)[C@@H]1CCCN1C(=O)[C@@H](NC(=O)[C@H](CCC(=O)C(N)=O)NC(=O)OCc1ccccc1)C(C)C [Compound E02, (S)-methyl 2-((S)-1-((S)-2-((S)-6-amino-2-(benzyloxycarbonylamino)-5,6-dioxo-hexanamido)-3-methylbutanoyl)pyrrolidine-2-carboxamido)-4-methylpentanoate] | > 1 mM | – | – |
| decreases | CC(=O)N[C@@H](CCC(=O)C(N)=O)C(=O)N1CCN(c2ccccc2Cl)CC1 [Compound E06, (S)-5-acetamido-6-(4-(2-chlorophenyl)piperazin-1-yl)-2,6-dioxohexanamide] | – | – | – |
| decreases | CCCCCNC(=O)C(=O)CC[C@H](NC(=O)[C@@H]1CCCN1C(C)=O)C(=O)Nc1cccn(CC(=O)NCC(CC)CC)c1=O [Compound E22, (S)-2-((S)-1-acetylpyrrolidine-2-carboxamido)-N1-(1-(2-(2-ethylbutylamino)-2-oxoethyl)-2-oxo-1,2-dihydropyridin-3-yl)-5-oxo-N6-pentylhexanediamide] | – | significantly reduced, also in a dose dependent manner | about 30% |
